Earlier results in US11103497B2, “Treatment of imatinib resistant leukemia” (Wyeth LLC, priority 2007, dated 2021).

Tests used:
CML tumors = conditions: nude mice; cited from earlier work
chronic myeloid leukemia = conditions: patients with chronic myeloid leukemia; cited from earlier work
CML cells = conditions: in culture; cited from earlier work

Cc1ccc(NC(=O)c2ccc(CN3CCN(C)CC3)cc2)cc1Nc1nccc(-c2cccnc2)n1 [Imatinib]
regression of CML tumors (CML tumors): causes regression
5-year survival rate (chronic myeloid leukemia): ~90%
toxicity to CML cells (CML cells): toxic
